Measurements from patent publication US7294457B2, “Direct binding assay for identifying inhibitors of HCV polymerase” (priority 2001, dated 2007).
Where “and” joins values, the source holds several entries; their conditions need not be identical. Equal entries are not always repeated.

Tests used:
[1] = target: T1, His-NS5BΔ21 polymerase (Hepatitis C virus genotype 1b, UniProt P26663); assay: Fluorescence anisotropy/polarization titration of probe with His-NS5BΔ21; format: binding, HCV; conditions: Kd of probe for N-terminally tagged His-NS5BΔ21, standard conditions
T1 construct: a variant that lacks the C-terminal 21 amino acids normally found on the mature NS5B; hexa-histidine (N); made in house; host or cells: E. coli JM109 (DE3), pET vector
Procedure: The fluorescein labeled probe was diluted to the desired concentration in 20 mM Tris-HCl pH 7.5, 1 mM EDTA, 5 mM MgCl2, 1 mM DTT and 10% DMSO. The NS5BΔ21-His protein was serially diluted in 25 mM Tris-HCl pH 7.5, 300 mM NaCl, 5 mM DTT, 1 mM EDTA, 30% glycerol and 0.1% IGEPAL. Total volume of the reaction was 500 μL and final assay buffer was 20 mM Tris-HCl pH 7.5, 1 mM EDTA, 5 mM MgCl2, 1 mM DTT, 30 mM NaCl, 3% glycerol, 0.01% IGEPAL and 5% DMSO. Anisotropy measurements were performed on a SLM Aminco 8100 Spectrofluorometer equipped with a 450-W xenon arc lamp and a T-optics configuration. Excitation wavelength was at 493 nm and emission was monitored at 530 nm. In each anisotropy measurement, the parallel and perpendicular intensities of the background buffer solution was subtracted from the measured values of the sample and the anisotropy was calculated. […]
To obtain Kd values of different compounds competing with these probes (test compounds), this assay was transformed to a more amenable format and a binding assay was made suitable for a 96-well microplate reader. […] The NS5BΔ21-His concentration in the assay was calculated to obtain 70% of binding of the probe; these conditions allowed for the displacement of the probe by test compounds. […]
The Fluorescence polarization assay was also used with other constructs of our HCV polymerase enzyme. […]

[2] = target: T2, NS5BΔ21-His polymerase (Hepatitis C virus genotype 1b, UniProt P26663); assay: Fluorescence anisotropy titration of probe with NS5BΔ21-His; format: binding, HCV; conditions: Kd of probe for NS5BΔ21-His
T2 construct: a variant that lacks the C-terminal 21 amino acids normally found on the mature NS5B; hexa-histidine (C); made in house; host or cells: E. coli JM109 (DE3), pET vector
Procedure: Titration of the probe with the enzyme was performed as follows:
(§1) The fluorescein labeled probe was diluted to the desired concentration in 20 mM Tris-HCl pH 7.5, 1 mM EDTA, 5 mM MgCl2, 1 mM DTT and 10% DMSO. The NS5BΔ21-His protein was serially diluted in 25 mM Tris-HCl pH 7.5, 300 mM NaCl, 5 mM DTT, 1 mM EDTA, 30% glycerol and 0.1% IGEPAL. Total volume of the reaction was 500 μL and final assay buffer was 20 mM Tris-HCl pH 7.5, 1 mM EDTA, 5 mM MgCl2, 1 mM DTT, 30 mM NaCl, 3% glycerol, 0.01% IGEPAL and 5% DMSO. Anisotropy measurements were performed on a SLM Aminco 8100 Spectrofluorometer equipped with a 450-W xenon arc lamp and a T-optics configuration. Excitation wavelength was at 493 nm and emission was monitored at 530 nm. In each anisotropy measurement, the parallel and perpendicular intensities of the background buffer solution was subtracted from the measured values of the sample and the anisotropy was calculated. Data were processed on SAS program (SAS Institute Inc., NC, USA) for a non linear regression to obtain the direct binding equilibrium constant and other parameters, and the plot of the regressed fit over the experimental data. An example of a titration curve obtained with probe (i) is shown on FIG. 1.
The usefulness of this polarization assay is evident when binding of compounds has to be studied under different conditions. For example, binding constants of the probes have been determined at different concentrations of salts and pH. FIGS. 5 to 8 show the binding curves of probe (i) in final NaCl concentrations ranging from 30 mM to 200 mM. […] All other reagents in the assay were as described in the standard protocol (Example 3). […] Studies at pH 6.5 were also performed to determine the Kd of the probe (i) at lower pH. For these assays, 20 mM Phosphate buffer pH 6.5 was used in place of Tris; all other reagents of the assay were as described in the 96-well Polarization assay (Example 4). […] Having established these Kd values under different experimental conditions, it is then trivial to determine what concentrations of probe and enzyme should be used to obtain 70% of binding of the probe with the equilibrium equation. Once these values are obtained, compounds of interest can easily be studied under the new conditions to determine their Kd values.

[3] = target: T3, GBV-BΔ23-His polymerase (Hepatitis GB virus B, UniProt Q69422); assay: Fluorescence anisotropy titration of probe with GBV-B polymerase; format: binding
T3 construct: The GBV-B polymerase enzyme (termed GBV-BΔ23-His; 3); His tag (C); made in house; host or cells: E. coli JM109 (DE3), pET vector
Procedure: as §1, with “An example of a titration curve obtained with probe (i) is shown on FIG. 1.” left out
(§2) The GBV-B and the HCV 1a polymerases were used to titrate probe ii, using the protocol described in Example 3. […] Kd values for a series of compounds were determined with these two HCV (genotypes 1a and 1b) polymerases, using the assay format described in Example 4.

[4] = target: T4, His-NS5BΔ21(H77c, HCV genotype 1a) polymerase (Hepatitis C virus genotype 1a, UniProt P27958); assay: Fluorescence anisotropy titration of probe with HCV genotype 1a polymerase; format: binding; conditions: Kd of probe for HCV genotype 1a polymerase, standard conditions of Example 3
T4 construct: The HCV genotype 1a NS5B polymerase [termed His-NS5BΔ21 (H77c, 1a); 4]; His tag (N); made in house; host or cells: E. coli JM109 (DE3), pET vector
Procedure: as §1, with “data.” for “data. An example of a titration curve obtained with probe (i) is shown on FIG. 1.”
as §2

[5] = standard conditions of Example 3 (Tris-HCl pH 7.5, 30 mM NaCl)

SMILES	Kd [1]	Kd ([2]; 20 mM Phosphate buffer pH 6.5 in place of Tris)	Kd ([2]; 30 mM NaCl)	Kd ([2]; 100 mM NaCl)	Kd ([2]; 150 mM NaCl)	Kd ([2]; 200 mM NaCl)	Kd [2, 5]	Kd ([3]; Kd of probe for GBV-BΔ23-His polymerase, estimated value with an incomplete curve)	Kd with GBV-B polymerase relative to HCV polymerases ([3]; fold higher Kd, specificity)	Kd [4]
O=C(O)COc1ccc2[nH]cc(C[C@H](NC(=O)c3ccc4c(c3)nc(-c3ccc(C(=O)NCCNC(=S)Nc5ccc(-c6c7ccc(=O)cc-7oc7cc(O)ccc67)c(C(=O)O)c5)cc3)n4C3CCCCC3)C(=O)O)c2c1 [probe (i), 5-[3-(2-{[1-(4-{5-[(S)-1-Carboxy-2-(5-carboxymethoxy-1-H-indol-3-yl)-ethylcarbamoyl]-1-cyclohexyl-1H-benzimidazol-2-yl}-phenyl)-methanoyl]-amino}-ethyl)-thioureido]-2-(6-hydroxy-3-oxo-3H-xanthen-9-yl)-benzoic acid]	18 nM and 18.1 nM	33 nM	15 nM and 15.3 nM	39 nM	78 nM	122 nM	15 nM and 12.6 nM			
O=C(O)COc1ccc2[nH]cc(C[C@H](NC(=O)c3ccc4c(c3)nc(-c3ccc(OCC(=O)NCCNC(=S)Nc5ccc(-c6c7ccc(=O)cc-7oc7cc(O)ccc67)c(C(=O)O)c5)cc3)n4C3CCCCC3)C(=O)O)c2c1 [probe (ii), 5-(3-{2-[2-(4-{5-[(S)-1-Carboxy-2-(5-carboxymethoxy-1-H-indol-3-yl)-ethylcarbamoyl]-1-cyclohexyl-1H-benzimidazol-2-yl}-phenoxy)-ethanoylamino]-ethyl}-thioureido)-2-(6-hydroxy-3-oxo-3H-xanthen-9-yl)-benzoic acid]							6 nM	1800 nM and 1790 nM	at least 100 fold	18 nM and 18.2 nM
